Data as given in ChEMBL document CHEMBL4118021, “Studies of TAK1-centered polypharmacology with novel covalent TAK1 inhibitors” (Bioorg Med Chem, 2017).
Active and inactive are the calls of the source.

Tests used:
Assay type in all cases: cell-based
[1] = target: Y-box-binding protein 1 (Homo sapiens) (UniProt P67809); assay: Binding affinity to YBX1 in human NCI-H23 cells at 1 uM by mass spectrometry based pull down assay
[2] = target: Citrate synthase, mitochondrial (Homo sapiens) (UniProt O75390); assay: Binding affinity to CS in human NCI-H23 cells at 1 uM by mass spectrometry based pull down assay
[3] = target: Calcyclin-binding protein (Homo sapiens) (UniProt Q9HB71); assay: Binding affinity to CACYBP in human NCI-H23 cells at 1 uM by mass spectrometry based pull down assay
[4] = target: Pigment epithelium-derived factor (Homo sapiens) (UniProt P36955); assay: Binding affinity to SERPINF1 in human NCI-H23 cells at 1 uM by mass spectrometry based pull down assay
[5] = target: Eukaryotic translation initiation factor 5B (Homo sapiens) (UniProt O60841); assay: Binding affinity to EIF5B in human NCI-H23 cells at 1 uM by mass spectrometry based pull down assay
[6] = target: Transmembrane emp24 domain-containing protein 10 (Homo sapiens) (UniProt P49755); assay: Binding affinity to TMED10 in human NCI-H23 cells at 1 uM by mass spectrometry based pull down assay
[7] = target: Ubiquitin carboxyl-terminal hydrolase 5 (Homo sapiens) (UniProt P45974); assay: Binding affinity to USP5 in human NCI-H23 cells at 1 uM by mass spectrometry based pull down assay
[8] = target: Thymidylate synthase (Homo sapiens) (UniProt P04818); assay: Binding affinity to TYMS in human NCI-H23 cells at 1 uM by mass spectrometry based pull down assay
[9] = target: Testis-expressed protein 264 (Homo sapiens) (UniProt Q9Y6I9); assay: Binding affinity to TEX264 in human NCI-H23 cells at 1 uM by mass spectrometry based pull down assay
[10] = target: Glutamate--cysteine ligase catalytic subunit (Homo sapiens) (UniProt P48506); assay: Binding affinity to GCLC in human NCI-H23 cells at 1 uM by mass spectrometry based pull down assay
[11] = target: Phosphatidylinositol 3-kinase catalytic subunit type 3 (Homo sapiens) (UniProt Q8NEB9); assay: Binding affinity to PIK3C3 in human NCI-H23 cells at 1 uM by mass spectrometry based pull down assay
[12] = target: Histone H3.2 (Homo sapiens) (UniProt Q71DI3); assay: Binding affinity to HIST2H3A in human NCI-H23 cells at 1 uM by mass spectrometry based pull down assay
[13] = target: Heterogeneous nuclear ribonucleoprotein H2 (Homo sapiens) (UniProt P55795); assay: Binding affinity to HNRNPH2 in human NCI-H358 cells at 1 uM by mass spectrometry based pull down assay
[14] = target: Protein transport protein Sec16A (Homo sapiens) (UniProt O15027); assay: Binding affinity to SEC16A in human NCI-H358 cells at 1 uM by mass spectrometry based pull down assay
[15] = target: Ribosomal protein S6 kinase alpha-1 (Homo sapiens) (UniProt Q15418); assay: Binding affinity to RPS6KA1 in human NCI-H358 cells at 1 uM by mass spectrometry based pull down assay
[16] = target: UV radiation resistance-associated gene protein (Homo sapiens) (UniProt Q9P2Y5); assay: Binding affinity to UVRAG in human NCI-H358 cells at 1 uM by mass spectrometry based pull down assay
[17] = target: RuvB-like 1 (Homo sapiens) (UniProt Q9Y265); assay: Binding affinity to RUVBL1 in human NCI-H358 cells at 1 uM by mass spectrometry based pull down assay
[18] = target: T1, Aurora kinase A (Homo sapiens) (UniProt O14965); assay: Binding affinity to AURKA in human NCI-H358 cells at 1 uM by mass spectrometry based pull down assay
T1 sequence (whole entry): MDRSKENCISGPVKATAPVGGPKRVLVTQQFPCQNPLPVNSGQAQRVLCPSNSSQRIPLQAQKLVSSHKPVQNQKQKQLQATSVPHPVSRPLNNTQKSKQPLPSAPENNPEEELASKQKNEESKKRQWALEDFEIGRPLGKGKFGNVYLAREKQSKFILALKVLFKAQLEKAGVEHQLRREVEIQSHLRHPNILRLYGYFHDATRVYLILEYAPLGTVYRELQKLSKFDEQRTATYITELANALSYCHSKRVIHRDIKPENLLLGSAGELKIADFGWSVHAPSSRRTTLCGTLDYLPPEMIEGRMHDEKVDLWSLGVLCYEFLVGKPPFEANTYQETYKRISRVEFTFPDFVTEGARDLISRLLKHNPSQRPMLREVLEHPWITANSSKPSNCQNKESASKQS

[19] = target: ATP-dependent RNA helicase DDX3X (Homo sapiens) (UniProt O00571); assay: Binding affinity to DDX3X in human NCI-H358 cells at 1 uM by mass spectrometry based pull down assay
[20] = target: YTH domain-containing family protein 2 (Homo sapiens) (UniProt Q9Y5A9); assay: Binding affinity to YTHDF2 in human NCI-H358 cells at 1 uM by mass spectrometry based pull down assay
[21] = target: Hippocalcin-like protein 1 (Homo sapiens) (UniProt P37235); assay: Binding affinity to HPCAL1 in human NCI-H358 cells at 1 uM by mass spectrometry based pull down assay
[22] = target: Proteasome adapter and scaffold protein ECM29 (Homo sapiens) (UniProt Q5VYK3); assay: Binding affinity to KIAA0368 in human NCI-H358 cells at 1 uM by mass spectrometry based pull down assay
[23] = target: MAP kinase-interacting serine/threonine-protein kinase 2 (Homo sapiens) (UniProt Q9HBH9); assay: Binding affinity to MKNK2 in human NCI-H358 cells at 1 uM by mass spectrometry based pull down assay
[24] = target: Importin subunit alpha-1 (Homo sapiens) (UniProt P52292); assay: Binding affinity to KPNA2 in human NCI-H358 cells at 1 uM by mass spectrometry based pull down assay
[25] = target: High mobility group protein B2 (Homo sapiens) (UniProt P26583); assay: Binding affinity to HMGB2 in human NCI-H358 cells at 1 uM by mass spectrometry based pull down assay
[26] = target: Cytochrome c (Homo sapiens) (UniProt P99999); assay: Binding affinity to CYCS in human NCI-H358 cells at 1 uM by mass spectrometry based pull down assay

Measured: Activity

Chain of Eukaryotic translation initiation factor 5B (Homo sapiens) (O60841 whole entry, the tested form may be a part): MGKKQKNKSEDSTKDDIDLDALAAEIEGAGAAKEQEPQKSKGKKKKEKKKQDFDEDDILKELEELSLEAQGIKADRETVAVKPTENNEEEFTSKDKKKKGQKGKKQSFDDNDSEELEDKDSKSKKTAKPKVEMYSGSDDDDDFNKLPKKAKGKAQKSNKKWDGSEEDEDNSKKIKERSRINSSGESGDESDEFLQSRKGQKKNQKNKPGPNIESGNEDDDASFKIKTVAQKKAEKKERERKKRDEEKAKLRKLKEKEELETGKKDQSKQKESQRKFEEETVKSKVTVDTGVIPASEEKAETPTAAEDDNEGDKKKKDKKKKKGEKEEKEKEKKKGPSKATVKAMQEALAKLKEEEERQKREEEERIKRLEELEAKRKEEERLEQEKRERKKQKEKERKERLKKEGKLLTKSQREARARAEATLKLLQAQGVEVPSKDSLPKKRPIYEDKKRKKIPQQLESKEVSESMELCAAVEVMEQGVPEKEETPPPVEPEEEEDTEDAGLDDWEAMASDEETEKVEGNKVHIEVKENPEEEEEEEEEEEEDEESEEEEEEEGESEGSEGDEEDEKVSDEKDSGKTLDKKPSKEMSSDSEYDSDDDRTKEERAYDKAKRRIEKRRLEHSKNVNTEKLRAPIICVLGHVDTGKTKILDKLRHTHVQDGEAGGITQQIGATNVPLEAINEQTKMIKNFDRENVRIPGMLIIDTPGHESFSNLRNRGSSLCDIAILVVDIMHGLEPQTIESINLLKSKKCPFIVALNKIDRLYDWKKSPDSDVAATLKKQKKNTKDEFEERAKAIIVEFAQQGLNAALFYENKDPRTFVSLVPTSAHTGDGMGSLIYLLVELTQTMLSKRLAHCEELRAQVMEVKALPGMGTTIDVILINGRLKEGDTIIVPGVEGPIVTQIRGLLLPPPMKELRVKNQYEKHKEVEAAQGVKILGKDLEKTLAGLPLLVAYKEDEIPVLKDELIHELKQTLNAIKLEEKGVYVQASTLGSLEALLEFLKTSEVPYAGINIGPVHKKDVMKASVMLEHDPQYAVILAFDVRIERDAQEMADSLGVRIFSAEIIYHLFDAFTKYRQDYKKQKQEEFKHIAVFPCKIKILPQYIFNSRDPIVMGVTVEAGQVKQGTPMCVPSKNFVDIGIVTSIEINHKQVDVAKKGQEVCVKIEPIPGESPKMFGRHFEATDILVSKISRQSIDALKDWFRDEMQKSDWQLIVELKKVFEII
Chain of Proteasome adapter and scaffold protein ECM29 (Homo sapiens) (Q5VYK3 whole entry): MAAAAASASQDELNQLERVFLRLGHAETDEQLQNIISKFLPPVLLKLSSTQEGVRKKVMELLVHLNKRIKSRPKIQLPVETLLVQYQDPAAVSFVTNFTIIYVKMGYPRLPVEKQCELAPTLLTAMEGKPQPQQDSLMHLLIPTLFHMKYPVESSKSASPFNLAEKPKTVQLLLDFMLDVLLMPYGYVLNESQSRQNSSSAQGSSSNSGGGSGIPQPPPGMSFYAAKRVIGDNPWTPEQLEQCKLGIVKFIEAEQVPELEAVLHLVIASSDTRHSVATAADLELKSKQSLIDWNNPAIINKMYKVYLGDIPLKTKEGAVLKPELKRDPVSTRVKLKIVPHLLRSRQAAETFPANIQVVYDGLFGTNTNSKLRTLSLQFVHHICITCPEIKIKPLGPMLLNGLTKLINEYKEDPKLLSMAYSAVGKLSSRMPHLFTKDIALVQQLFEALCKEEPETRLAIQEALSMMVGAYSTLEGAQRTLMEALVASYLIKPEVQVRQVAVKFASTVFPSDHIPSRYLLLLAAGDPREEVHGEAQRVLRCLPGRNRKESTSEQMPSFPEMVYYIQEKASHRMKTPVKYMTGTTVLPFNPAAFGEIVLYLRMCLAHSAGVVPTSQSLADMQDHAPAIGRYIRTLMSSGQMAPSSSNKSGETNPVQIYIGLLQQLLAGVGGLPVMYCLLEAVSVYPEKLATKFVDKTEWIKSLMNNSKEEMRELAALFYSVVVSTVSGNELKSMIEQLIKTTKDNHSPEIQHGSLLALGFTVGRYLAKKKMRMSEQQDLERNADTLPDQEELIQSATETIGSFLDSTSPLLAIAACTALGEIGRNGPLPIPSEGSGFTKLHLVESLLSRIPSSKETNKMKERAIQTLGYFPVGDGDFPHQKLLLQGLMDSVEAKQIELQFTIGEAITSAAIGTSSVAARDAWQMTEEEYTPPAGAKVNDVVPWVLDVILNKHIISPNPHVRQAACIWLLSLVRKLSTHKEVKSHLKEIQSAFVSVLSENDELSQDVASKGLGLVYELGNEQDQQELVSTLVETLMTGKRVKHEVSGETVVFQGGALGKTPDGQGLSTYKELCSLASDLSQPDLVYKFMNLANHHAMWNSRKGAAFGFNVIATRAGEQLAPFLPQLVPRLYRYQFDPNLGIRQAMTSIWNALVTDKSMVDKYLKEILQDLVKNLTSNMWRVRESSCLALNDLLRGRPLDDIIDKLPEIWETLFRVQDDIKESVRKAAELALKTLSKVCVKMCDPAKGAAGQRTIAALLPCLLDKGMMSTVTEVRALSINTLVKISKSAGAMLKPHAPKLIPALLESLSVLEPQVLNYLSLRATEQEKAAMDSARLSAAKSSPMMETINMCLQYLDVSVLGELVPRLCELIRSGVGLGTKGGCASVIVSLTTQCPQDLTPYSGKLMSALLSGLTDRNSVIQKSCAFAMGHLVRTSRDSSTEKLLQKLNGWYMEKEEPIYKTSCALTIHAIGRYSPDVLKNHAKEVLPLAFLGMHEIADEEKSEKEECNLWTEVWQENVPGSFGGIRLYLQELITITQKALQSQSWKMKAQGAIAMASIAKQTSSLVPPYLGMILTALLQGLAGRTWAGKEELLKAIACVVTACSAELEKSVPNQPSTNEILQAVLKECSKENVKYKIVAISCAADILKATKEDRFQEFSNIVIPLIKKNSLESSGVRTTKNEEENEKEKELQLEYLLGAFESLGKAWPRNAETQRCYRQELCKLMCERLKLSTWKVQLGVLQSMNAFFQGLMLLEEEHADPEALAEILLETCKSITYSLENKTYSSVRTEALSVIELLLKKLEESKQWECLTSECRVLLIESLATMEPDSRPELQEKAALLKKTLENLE
Chain of Heterogeneous nuclear ribonucleoprotein H2 (Homo sapiens) (P55795 whole entry): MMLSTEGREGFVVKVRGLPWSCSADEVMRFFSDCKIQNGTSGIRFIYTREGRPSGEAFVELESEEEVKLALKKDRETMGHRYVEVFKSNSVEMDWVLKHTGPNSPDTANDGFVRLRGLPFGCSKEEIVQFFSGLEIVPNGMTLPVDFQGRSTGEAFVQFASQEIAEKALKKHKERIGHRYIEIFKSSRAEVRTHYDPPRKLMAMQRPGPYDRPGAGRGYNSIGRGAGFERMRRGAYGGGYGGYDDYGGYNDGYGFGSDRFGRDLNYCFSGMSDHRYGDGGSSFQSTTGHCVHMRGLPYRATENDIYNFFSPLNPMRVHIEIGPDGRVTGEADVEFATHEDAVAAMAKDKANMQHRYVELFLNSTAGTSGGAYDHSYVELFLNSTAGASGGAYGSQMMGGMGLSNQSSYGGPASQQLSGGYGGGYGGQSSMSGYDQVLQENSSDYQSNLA
Chain of High mobility group protein B2 (Homo sapiens) (P26583 whole entry): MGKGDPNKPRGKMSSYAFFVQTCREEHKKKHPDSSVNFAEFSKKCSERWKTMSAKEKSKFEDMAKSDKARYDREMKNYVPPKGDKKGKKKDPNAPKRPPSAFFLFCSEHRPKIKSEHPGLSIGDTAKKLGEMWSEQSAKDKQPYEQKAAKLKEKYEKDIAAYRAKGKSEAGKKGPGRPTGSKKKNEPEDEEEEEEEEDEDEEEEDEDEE
Chain of MAP kinase-interacting serine/threonine-protein kinase 2 (Homo sapiens) (Q9HBH9 whole entry, looked up): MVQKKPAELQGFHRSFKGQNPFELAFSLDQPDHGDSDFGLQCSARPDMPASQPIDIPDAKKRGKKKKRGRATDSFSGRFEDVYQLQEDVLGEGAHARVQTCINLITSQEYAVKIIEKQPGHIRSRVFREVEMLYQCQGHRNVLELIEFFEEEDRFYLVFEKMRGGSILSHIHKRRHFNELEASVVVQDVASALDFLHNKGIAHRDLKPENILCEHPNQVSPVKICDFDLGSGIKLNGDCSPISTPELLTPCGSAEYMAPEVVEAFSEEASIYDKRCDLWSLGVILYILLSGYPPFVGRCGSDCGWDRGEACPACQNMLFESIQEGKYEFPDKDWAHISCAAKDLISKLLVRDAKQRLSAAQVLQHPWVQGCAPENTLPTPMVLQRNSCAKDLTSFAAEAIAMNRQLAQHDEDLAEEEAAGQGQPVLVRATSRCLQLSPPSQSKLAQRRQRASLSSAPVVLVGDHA
Chain of YTH domain-containing family protein 2 (Homo sapiens) (Q9Y5A9 whole entry, the tested form may be a part): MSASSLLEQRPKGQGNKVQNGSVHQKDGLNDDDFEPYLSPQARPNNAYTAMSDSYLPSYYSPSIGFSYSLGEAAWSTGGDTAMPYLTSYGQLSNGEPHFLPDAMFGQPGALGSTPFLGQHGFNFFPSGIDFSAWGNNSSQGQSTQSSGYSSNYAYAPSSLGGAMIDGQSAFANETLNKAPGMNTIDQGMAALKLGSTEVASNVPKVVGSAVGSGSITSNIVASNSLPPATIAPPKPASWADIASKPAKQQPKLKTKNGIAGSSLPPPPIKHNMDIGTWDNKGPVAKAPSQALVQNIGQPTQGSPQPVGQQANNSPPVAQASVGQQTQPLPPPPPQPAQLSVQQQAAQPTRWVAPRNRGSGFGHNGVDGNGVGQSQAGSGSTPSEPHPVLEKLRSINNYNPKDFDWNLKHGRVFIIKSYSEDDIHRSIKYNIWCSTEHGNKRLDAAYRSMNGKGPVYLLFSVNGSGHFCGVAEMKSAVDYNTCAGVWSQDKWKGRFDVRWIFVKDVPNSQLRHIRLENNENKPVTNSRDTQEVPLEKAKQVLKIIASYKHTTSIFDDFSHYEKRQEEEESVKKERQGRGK
Chain of Calcyclin-binding protein (Homo sapiens) (Q9HB71 whole entry): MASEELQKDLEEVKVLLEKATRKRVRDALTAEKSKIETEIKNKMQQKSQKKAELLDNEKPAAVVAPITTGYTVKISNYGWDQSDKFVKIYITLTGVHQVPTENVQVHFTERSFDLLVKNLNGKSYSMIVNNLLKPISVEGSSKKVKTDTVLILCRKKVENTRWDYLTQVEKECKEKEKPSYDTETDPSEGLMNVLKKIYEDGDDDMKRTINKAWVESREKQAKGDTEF

C=CC(=O)Nc1ccccc1Nc1nc(Nc2ccc(N3CCN(CCOCCOCCOCCNC(=O)CCCC[C@@H]4SC[C@@H]5NC(=O)N[C@@H]54)CC3)cc2)ncc1Cl
active: [1] | [2] | [3] | [4] | [5] | [6] | [7] | [8] | [9] | [10] | [11] | [12] | [13] | [14] | [15] | [16] | [17] | [18] | [19] | [20] | [21] | [22] | [23] | [24] | [25] | [26]
